Laboratory results as given in EP0283369B1, “Use of Metformin in the preparation of medicaments” (LIPHA, LYONNAISE INDUSTRIELLE PHARMACEUTIQUE, priority 1987, dated 1988).

Key:
[1] = test system: néovascularisation de la cornée du lapin; test: Rabbit cornea neovascularisation model; format: in vivo; conditions: administration in situ
From the text: (§1) • la néovascularisation est le résultat d'une prolifération anormale de cellules endothéliales en particulier dans un environnement hypoxique. • * Cette situation peut être reproduite in vitro en étudiant une telle prolifération sur une culture de cellules endothéliales humaines placées en hypoxie. […] Tout d'abord dans le modèle classique de néovascularisation de la cornée du lapin (M.A. Gimbrone Jr, R.S. Cotran, S.B. Leafman et A.J. Folkman, J. Natl Cancer Inst. 52).

[2] = test system: endothélium en culture sur sa matrice extracellulaire; test: Penetration of cancer cells through cultured endothelium on its extracellular matrix; format: cell-based; conditions: 10⁻⁴ - 10⁻⁵ M; in vitro
métastases pulmonaires = test: Pulmonary metastasis model in the mouse; format: in vivo; conditions: 25 et 12,5 mg par voie orale; souris
artérioles terminales = test: Skin window in the awake hamster: spontaneous microvascular vasomotion; format: in vivo; conditions: 2 mg/100 g par voie intraveineuse; hamster éveillé; controls: une par minute
From the text: La fenêtre est éclairée par transmission, on observe le lit capillaire au microscope trioculaire. L'image est transformée en vidéosignal par une caméra. L'enregistrement du diamètre des microvaisseaux est réalisé en continu.
Le produit à étudier est administré par voie intra-veineuse.

[3] = test system: modèle d'ischémie périphérique chez le rat; test: Peripheral ischaemia model: microspheres injected into the femoral artery; format: in vivo; conditions: voie intra péritonéale 20 mg/kg
From the text: Dans un modèle d'ischémie périphérique chez le rat, l'injection de microsphères dans l'artère fémorale, provoque l'apparition d'un oedème de la patte ainsi qu'une baisse des capacités motrices de l'animal.

[4] = test system: cellules endothéliales humaines; test: Proliferation of human endothelial cells cultured in hypoxia
From the text: as §1

[5] = test system: cellules musculaires lisses précapillaires; test: Hamster cheek pouch microcirculation under pentobarbital anaesthesia; format: in vivo; conditions: 1-2 mg/100 g par voie intraveineuse; animal anesthésié au pentobarbital (contractions abolished)
[6] = test system: formation de néovaisseaux; test: Neovascularisation after irreversible venous occlusion by argon laser photocoagulation in the miniature pig; format: in vivo, porc miniature; conditions: voie orale, dose journalière de 100 mg, pendant 4 semaines; 6 porcs miniatures
From the text: Pournaras, […] Mbl. Augenheilk. 186 (1985) 471-476). Les expériences ont été partiquées chez le porc miniature. Une occlusion veineuse irréversible a été obtenue par photocoagulation au moyen du laser à Argon. L'angiographie fluorescéinique permet de visualiser 4 semaines après l'occlusion, dans les zones où les vaisseaux de suppléance sont insuffisants en nombre pour assurer la fonction de drainage, […]éovascularisation.

CN(C)C(=N)NC(=N)N [Metformine, N,N-diméthylimidodicarbonimidicdiamide]
apparition des néovaisseaux [1]: inhibe l'apparition des néovaisseaux
pénétration de cellules cancéreuses à travers l'endothélium [2]: inhibe la pénétration de cellules cancéreuses à travers l'endothélium
baisse du nombre de métastases (métastases pulmonaires): 50%
fréquence de contractions et dilatations des artérioles terminales (artérioles terminales): 10 par minute
motricité (capacités motrices de l'animal) [3]: récupération totale de la motricité
réduction de l'oedème de la patte [3]: 60%
prolifération de cellules endothéliales humaines en hypoxie ([4]; concentrations de l'ordre de 10⁻⁷ à 10⁻¹² M, hypoxie): inhibe fortement cette prolifération
cytotoxicité sur ces cultures cellulaires ([4]; cultures de cellules endothéliales humaines): ne présente pas de cytotoxicité
contractions et relaxations rythmiques des cellules musculaires lisses précapillaires [5]: réapparition des contractions et relaxations rythmiques des cellules musculaires lisses précapillaires
apparition d'une néovascularisation [6]: suppression complète de l'apparition d'une néovascularisation
